This is an account of results in PMC5903829 (Experimental & Molecular Medicine, 2018).

The subject of this assay is Caco-2 cells. The assay is described as follows: Trans-epithelial electrical resistance in Caco-2 monolayers. The format is cell-based, human. The settings on record: compound C 30 min pre-treatment, then LPS or LPS+AmEV.

`c1cc(-c2cnn3cc(-c4ccc(OCCN5CCCCC5)cc4)cnc23)ccn1` [compound C]: the “AmEVs' ability to improve LPS-induced loss of barrier integrity (TEER) in the presence of AMPK inhibitor” value was “abolished”.
